Measurements taken from patent publication US20240335541A1, “NANOMATERIALS COMPRISING DIAMINES” (Beam Therapeutics Inc., priority 2021, published 2024).

Key:
Assay in all cases: Barcoded pooled LNP biodistribution screen, fold above input (FAI)
Assay type in all cases: in vivo
Liver = settings: Table 4 screening experiment; pooled LNP IV tail vein, mice, 4 hours post-dose
Procedure: (§1) Male and female mice aged approximately 8-12 weeks were used for studies described by the present Example. Each mouse was temporarily restrained and pooled LNP was administered IV via tail vein injection in up to five animals per experiment. Age-matched mice was also used to administer vehicle (1×TBS) via tail vein injection in up to three animals per experiment. Additional routes of administration can also be conducted including intracerebral ventricular (ICV), intracisterna manga (ICM), intrathecal (IT), intramuscular (IM), nebulization, intranasal (IN), subcutaneous (SC), intraarticular, and intradermal (ID). At 4 hours post-dose, tissues including liver, spleen, bone marrow, testes, gastrocnemius, quadricep, lung, heart, kidney, and pancreas may be collected for analysis.
(§2) Liver, kidney, lung, and muscle (e.g. skeletal and cardiac) tissues may be mechanically, and then enzymatically digested using a mixture of proteinases, then passed through a 70 μm filter to generate single cell suspensions. Spleen tissues were mechanically digested to generate single cell suspensions. Tissues were treated with ACK buffer to lyse red blood cells, and then stained with fluorescently-labeled antibodies for flow cytometry and fluorescence-activated cell sorting (FACS). Commercially available antibodies were used in the present example. Using a BD FACSMelody (Becton Dickinson), samples were acquired via flow cytometry to generate gates prior to sorting. In general, the gating structure was size→singlet cells→live cells→cells of interest. T cells were defined as CD45+CD3+, monocytes are defined as CD45+CD11b+, and B cells are defined as CD45+CD19+. Endothelial cells were defined as CD31+, monocytes and Kupffer cells as CD45+CD11b+ and hepatocytes and myocytes were defined as CD31−/CD45− in the liver and muscle, respectively. Tissues from vehicle-dosed mice were used to set the gates for sorting.
(§3) RNA from tissues were extracted using the Reliaprep RNA extraction kit, and libraries were prepared using the RNAseq kit, and sequenced on either a MiSeq or NextSeq500.
(§4) To screen for preferential LNP delivery to a target tissues, the relative abundance of each barcode in one or more target tissues was measured and compared to the relative abundance of each barcode to its corresponding relative input abundance to determine fold above input (FAI) for each barcode. If the FAI of a barcode in a target tissue is above a threshold or above the FAI of a different LNP in the same tissue, the LNP can be identified as preferentially delivering to the target tissue.
(§5) The FAI is the normalized relative abundance of a barcode in a selected sample as compared to its frequency in the input. The FAI of a barcode indicates how a LNP's abundance changes relative to the rest of the LNP pool. The FAI value of the barcode was calculated by normalizing the relative abundance in the barcode sequence counts in the isolated samples to its relative abundance in the administration input. […] The FAI then indicates the performance of an LNP relative to the input LNP composition.

Lung = settings: pooled LNP IV tail vein, mice, 4 hours post-dose
Procedure: as §1, §2, §3, §4, §5

Spleen = settings: pooled LNP IV tail vein, mice, 4 hours post-dose
Procedure: as §1, §2, §3, §4, §5

CCCCC/C=C\C/C=C\CCCCCCCCC(CCCCCCCC/C=C\C/C=C\CCCCC)OC(=O)CCCN(C)C [MC3, (6Z,9Z,28Z,31Z)-heptatriaconta-6,9,28,31-tetraen-19-yl 4-(dimethylamino) butanoate]
FAI (Liver) (Liver): 0.86
FAI (Lung) (Lung; Table 4 screening experiment): 1.13
FAI (Lung) (Lung; Table 5 screening experiment): 0.50
FAI (Spleen) (Spleen; Table 4 screening experiment): 1.94
FAI (Spleen) (Spleen; Table 5 screening experiment): 0.39
